Like-named read-outs stand apart in the source and are kept apart here.
Experiments:
[1] = target: T1, Human NTCP (Homo sapiens, UniProt Q14973); assay: Time course of dissociation (washout), [3H]taurocholate uptake in hNTCP CHO cells; assay type: cell-based; conditions: 1 μM for 15 min, 6 hours postwashout; read-out: inhibition of human NTCP BA transport activity after washout
T1 construct: expressed in transfected cells; peptide purchased from Pharmaron
T1 sequence (Q14973 1-349): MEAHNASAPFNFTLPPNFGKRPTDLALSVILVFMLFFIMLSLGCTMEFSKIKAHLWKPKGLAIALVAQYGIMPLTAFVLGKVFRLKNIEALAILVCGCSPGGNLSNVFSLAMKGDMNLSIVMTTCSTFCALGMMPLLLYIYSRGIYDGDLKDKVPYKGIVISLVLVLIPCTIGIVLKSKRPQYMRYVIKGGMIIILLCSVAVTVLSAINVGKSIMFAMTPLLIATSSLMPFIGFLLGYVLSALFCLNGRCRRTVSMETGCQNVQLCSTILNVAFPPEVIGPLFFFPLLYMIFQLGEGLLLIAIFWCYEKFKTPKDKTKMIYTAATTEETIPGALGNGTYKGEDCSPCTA
Procedure: This study was performed using a [^3H]taurocholate uptake assay protocol. Stably transfected CHO cells expressing human NTCP (hNTCP) were seeded onto 24 well plates at a density of 1.5-2.0×10^5 cells/well in CHO cell media (DMEM/F12 media supplemented with 10% FBS, Penicillin/Streptomycin) plus Geneticin (G418) to maintain selection in culture. After overnight incubation, the media was replaced, and CHO cells were treated with 10 mM sodium butyrate to induce transporter expression (final concentration=[…]). Twenty-four h later, the media was removed, and cells were washed with warm (37° C.) Hanks balanced salt solution (HBSS) containing sodium (Na+). Cells were then incubated with 1 μM of the test inhibitors or vehicle (DMSO) for 15 min in CHO cell media at 37° C. […]
For the [^3H]taurocholate uptake assay, the media was aspirated at the end of each washout period, and cells were washed three times with warm Hanks balanced salt solution (HBSS) containing sodium (Na+). […] Duplicate 100 μL aliquots of the lysate were transferred to vials with scintillation liquid and counted after neutralization and overnight quenching. Cell-associated protein was measured in duplicate using the BCA protein assay, and cell-associated radioactivity was normalized to protein content.

[2] = test system: NTCP-HepG2 cells; assay: MTT cytotoxicity assay; assay type: cell-based, human; conditions: 1 nM-100 μM, HepG2 cells expressing NTCP
Procedure: The In Vitro Toxicology Assay Kit (Sigma-Aldrich) was used to perform a 3-[4,5-dimethylthiazole-2-yl]-2,5-diphenyltetrazolium bromide (MTT) assay to measure the cytotoxicity of the test item according to the manufacturer's protocol. Briefly, NTCP-HepG2 cells were incubated with 100 μL of the indicated concentrations of the test item solved in Hepatocyte Growth Medium (HGM) over 6 h at 37° C. After 6 h, medium was replaced by inhibitor-free HGM and cells were cultured for additional 24 h. Then medium was removed and 100 μL DMEM containing 0.5 mg/mL MTT was added and cells were incubated for 1 h at 37° C. Finally, the medium was replaced by 100 μL isopropyl alcohol (Sigma-Aldrich) and samples were measured by Glo-Max-Multi Detection System (Promega, Madison, Wis., USA). See also Lowjaga K A A, et al. (2020). Long-term trans-inhibition of the hepatitis B and D virus receptor NTCP by taurolithocholic acid. Am J Physiol Gastrointest Liver Physiol 320(1):G66-G80; and Kirstgen et al. 2021.

[3] = test system: HBV (genotype D); assay: In vitro HBV infection of NTCP-HepG2 cells, second study (HBeAg, HBc); assay type: cell-based, hepatitis B virus; conditions: for IC50: Hepatitis B virus
Procedure: In a second study, recombinant HBV (genotype D) was produced in vitro as described in the literature (König et al. 2014). […] The myr-preS12-48 peptide (500 nM, genotype D) was used as control inhibitor. All infection experiments were performed in NTCP-HepG2 cells cultured in HGM in the presence of the corresponding compounds with different concentrations, 4% PEG-8000 (Sigma-Aldrich, Darmstadt, Germany), 2% DMSO (Carl Roth, Karlsruhe, Germany) and 100 ng/ml EGF (PeproTech, Hamburg, Germany) as final concentration each. Recombinant HBV was diluted in HGM to a final concentration of 2.5×10^10 HBV-genome copies per well (7×10^8 IU per well) and was added to the cells for 6 h. Subsequently, cells were washed with HGM and cultured in HGM supplemented with 2% DMSO. Medium was changed every 2-3 days until cells were fixed at day 9 p.i. with 3.8% paraformaldehyde (Sigma-Aldrich) in PBS, for 30 min at RT. The cells were immunostained at 37° C. for 1 h (1:400 dilution). For detection of HBV core (HBc) protein expression, a polyclonal anti-HBc antiserum from an immunized guinea pig (1:500 dilution, Eurogentec, Seraing, Belgium) was used as primary antibody and an Alexa Fluor 488-conjugated goat anti-guinea-pig-IgG-antibody (1:400 dilution, Thermo Fisher Scientific) as secondary antibody. Nuclei were stained with DAPI (0.5 μg/ml, Thermo Fisher Scientific). […] HBV-infected cells secrete the soluble HBeAg, which is a widely-accepted quantitative marker for productive HBV infection in cell culture experiments. In this study, HBeAg secreted from infected cells into the cell culture supernatant was determined of supernatant collected from day 5 to 9 p.i. using the Architect HBeAg assay, an automated in vitro diagnostic system (Abbott Laboratories, Wiesbaden, Germany).
Determination of IC50 values was done by nonlinear regression analysis using the equation log(inhibitor) vs. response settings of the GraphPad Prism 6.0 software (GraphPad). Data of [^3H]TC transport and [^3H]preS1 binding are expressed as means±SD from quadruplicate determinations. […]

CCCCC1CN(c2ccccc2)c2cc(SC)c(O/C=C(\F)C(=O)O)cc2S(=O)(=O)N1C (centres unmarked) [Compound 1, (Z)-3-((3-butyl-2-methyl-7-(methylthio)-1,1-dioxido-5-phenyl-2,3,4,5-tetrahydro-1,2,5-benzothiadiazepin-8-yl)oxy)-2-fluoroacrylic acid]
inhibition at 1 µM [1]: > 50% | cytotoxic effects (MTT) [2]: no cytotoxic effects | IC50 ([3]; read-out: IC50 in vitro HBV infection (HBc)): 16.1 nM | IC50 ([3]; read-out: IC50 in vitro HBV infection (HBeAg)): 19.1 nM | HBeAg secretion relative to cut off value ([3]; second study, highest inhibitor concentration 1000 nM): above the cut off value

From patent publication US20230398125A1, “TREATING HEPATITIS” (Albireo AB, priority 2022, published 2023)
